In one assay the test system is Botrytis cinerea. Kind of assay: Botrytis cinerea (Gray mould) liquid culture growth inhibition, microtiter plate. The class given is cell-based. To be noted: single compound, 72 hrs, 24 C, read-out: Observed Activity (%). The procedure: Botrytis cinerea (Gray Mould): Conidia of the fungus from cryogenic storage were directly mixed into nutrient broth (PDB potato dextrose broth). A DMSO solution of the test compounds was placed into a microtiter plate (96-well format) and the nutrient broth containing the fungal spores was added to it. The test plates were incubated at 24 C and the inhibition of growth was determined photometrically after 72 hrs.

The test system of assay [1] is Mycosphaerella arachidis syn. Cercospora arachidicola. Kind of assay: Mycosphaerella arachidis syn. Cercospora arachidicola (Brown leaf spot of peanut) liquid culture growth inhibition. The class given is cell-based. To be noted: single compound, approximately 5-6 days, 24 C, read-out: Observed Activity (%). As to the method:
Mycosphaerella arachidis syn. Cercospora arachidicola (Brown Leaf Spot of Peanut): Conidia of the fungus from cryogenic storage were directly mixed into nutrient broth (PDB potato dextrose broth). A DMSO solution of the test compounds was placed into a microtiter plate (96-well format) and the nutrient broth containing the fungal spores was added to it. The test plates were incubated at 24 C and the inhibition of growth was determined photometrically after approximately 5-6 days at 620nm

A further assay has as its system Phakopsora pachyrhizi. The assay is described as follows: Phakopsora pachyrhizi (Soybean rust) soybean leaf disk preventive fungicidal activity. The format is in vivo. To be noted: single compound, approx. 12 dpi; for inhibition at 1 g/ha / inhibition at 3 g/ha: Phakopsora pachyrhizi, foliar, read-out: Observed Activity (%). The procedure: Phakopsora pachyrhizi (Soybean Rust): Soybean leaf disks are placed on agar in multiwell plates (24-well format) and sprayed with test solutions. After drying, the leaf disks are inoculated with a spore suspension of the fungus. After appropriate incubation the activity of a compound is assessed approx. 12 dpi (days after inoculation) as preventive fungicidal activity.

The test system of another assay is Septoria tritici. Kind of assay: Septoria tritici (Leaf blotch) liquid culture growth inhibition, microtiter plate. The class given is cell-based. To be noted: single compound, 72 hrs, 24 C. As to the method: Septoria tritici (Leaf Blotch): Conidia of the fungus from cryogenic storage were directly mixed into nutrient broth (PDB potato dextrose broth). A DMSO solution of the test compounds was placed into a microtiter plate (96-well format) and the nutrient broth containing the fungal spores was added to it. The test plates were incubated at 24 C and the inhibition of growth was determined photometrically after 72 hrs.

Where [2] appears, read: Zymoseptoria tritici, read-out: Observed Activity (%).

Several values for one entry are separate records, joined by “and”; a condition that tells them apart may be missing. Identical values can stand only once.

As to `COC(=O)NCc1cc(-c2ccn(-c3c(F)cc(C4CC4)cc3F)n2)ccc1C` [methyl N-[[5-[1-(4-cyclopropyl-2,6-difluoro-phenyl)pyrazol-3-yl]-2-methyl-phenyl]methyl]carbamate, reference compound], the inhibition at 0.0074 ppm with Botrytis cinerea (0.0074 ppm) was 0%. The inhibition at 0.022 ppm in the assay with Botrytis cinerea (0.022 ppm) amounted to 50%. In assay [1] (0.00246 ppm), the inhibition at 0.00246 ppm was determined as 20%. Besides, the inhibition at 1 g/ha with Phakopsora pachyrhizi (1 g a.i./ha) is 12%. Besides, the inhibition at 3 g/ha with Phakopsora pachyrhizi (3 g a.i./ha) came out at 54%. For the same compound, in the assay with Septoria tritici (Zymoseptoria tritici, 0.0008 ppm, read-out: Observed Activity (%)), the inhibition at 0.0008 ppm turned out to be 20%.

`CCOC(=O)c1cnn(Cc2ccc(O/C=C(\OCC)C(F)(F)F)cc2)c1` [ethyl 1-[[4-[(Z)-2-ethoxy-3,3,3-trifluoro-prop-1-enoxy]phenyl]methyl]pyrazole-4-carboxylate, reference compound]: in the assay on Botrytis cinerea, the inhibition at 6.66 ppm is 20% and the inhibition at 20 ppm worked out at 20%. The inhibition at 1 g/ha in the assay with Phakopsora pachyrhizi (1 g a.i./ha) turned out to be 38%. Besides, the inhibition at 3 g/ha with Phakopsora pachyrhizi (3 g a.i./ha) was found to be 56%. Also, in the assay with Septoria tritici (setting [2]), the inhibition at 20 ppm was 20%.

For `Fc1cccc(F)c1C1(Nc2ncc(-c3nnc(C(F)F)o3)cn2)CC1` [Compound A-1.3, 5-[5-(difluoromethyl)-1,3,4-oxadiazol-2-yl]-N-[1-(2,6-difluorophenyl)cyclopropyl]pyrimidin-2-amine], the inhibition at 10 ppm (in the assay on Botrytis cinerea; in assay [1] (10 ppm); in the assay with Septoria tritici (setting [2])) was 20% throughout. Moreover, the inhibition at 20 ppm (in the assay on Botrytis cinerea; in assay [1] (20 ppm); in the assay with Septoria tritici (setting [2])) was 20% throughout. For the same compound, the inhibition at 3 g/ha with Phakopsora pachyrhizi (3 g a.i./ha) amounted to 47%. In addition, the “Observed Activity (%)” value in the assay on Phakopsora pachyrhizi (1 g a.i./ha) was 5% and 1%.

As to `Fc1ccccc1C1(Nc2ncc(-c3nnc(C(F)F)o3)cn2)CC1` [Compound A-1.4, 5-[5-(difluoromethyl)-1,3,4-oxadiazol-2-yl]-N-[1-(2-fluorophenyl)cyclopropyl]pyrimidin-2-amine], in the assay with Botrytis cinerea, the inhibition at 10 ppm was determined as 20% and the inhibition at 20 ppm was 20%. Also, in the assay on Phakopsora pachyrhizi (1 g a.i./ha), the inhibition at 1 g/ha came to 12% and the “Observed Activity (%)” value worked out at 16%. Further, in the assay on Phakopsora pachyrhizi (3 g a.i./ha), the inhibition at 3 g/ha came to 43% and the “Observed Activity (%)” value worked out at 45%. Further, in the assay with Septoria tritici (setting [2]), the inhibition at 10 ppm stood at 20% and the inhibition at 20 ppm worked out at 20%.

For `Fc1cccc(F)c1C1(Oc2ncc(-c3nnc(C(F)F)o3)cn2)CC1` [Compound A-1.2, 2-(difluoromethyl)-5-[2-[1-(2,6-difluorophenyl)cyclopropoxy]pyrimidin-5-yl]-1,3,4-oxadiazole], the “Observed Activity (%)” value is 0% and 9% in the assay on Phakopsora pachyrhizi (1 g a.i./ha); 4% and 0% in the assay with Phakopsora pachyrhizi (3 g a.i./ha); 5% in the assay on Phakopsora pachyrhizi (6 g a.i./ha). Moreover, the inhibition at 10 ppm with Septoria tritici (setting [2]) came out at 0%. In the assay on Septoria tritici (setting [2]), the inhibition at 20 ppm was 0%.

For `CCOC(=O)c1cnn(Cc2ccc(OCC3(C(F)(F)F)OCCO3)cc2)c1` [ethyl 1-[[4-[[2-(trifluoromethyl)-1,3-dioxolan-2-yl]methoxy]phenyl]methyl]pyrazole-4-carboxylate], in the assay on Botrytis cinerea, the inhibition at 6.66 ppm is 0% and the inhibition at 20 ppm turned out to be 0%. Further, in the assay on Phakopsora pachyrhizi (1 g a.i./ha), the inhibition at 1 g/ha worked out at 35%.

Regarding “1-(2,6-difluoro-4-isopropyl-phenyl)pyrazole; methyl N-[(2,5-dimethylphenyl)methyl]carbamate [reference compound]”, the “Observed Activity (%)” value in the assay with Phakopsora pachyrhizi (1 g a.i./ha) was 3%; in the assay with Phakopsora pachyrhizi (3 g a.i./ha) it was 65%; in the assay on Septoria tritici (0.0008 ppm) it was 20%; in the assay on Septoria tritici (0.00246 ppm), 70%.

The values above are taken from US20260020566A1, “FUNGICIDAL COMPOSITIONS” (SYNGENTA CROP PROTECTION AG, priority 2022, published 2026).
